Source: a melting point compilation (Tetko et al.)

First: O=C1CC2(CCSC2)C(=O)N1 (centres undefined)
Second: CCC1(C)NC(=O)NC1=O (centres undefined)
The melting point of the first is lower: 135 to 137 °C for the first, 144 to 150 °C for the second.

First: NNC(=S)NCC1CCC1
Second: O=C(CCl)Nc1ccnn1C1CCCC1
The melting point of the first is higher: 104 to 106 °C for the first, 76 to 78 °C for the second.

First: Nc1ccc(CC(=O)N2CCCc3ccccc32)cc1
Second: Nc1cccc(CNC(=O)Nc2ccccc2Cl)c1
The melting point of the first is lower: 141 to 143 °C for the first, 177 to 179 °C for the second.

First: Cc1ccc(O)c(C=O)n1
Second: O=Cc1nc(-c2cc(Cl)ccc2Cl)cs1
The melting point of the first is lower: 64 to 66 °C for the first, 112 to 114 °C for the second.

Compared with CCOc1ccc(NC(=O)CO)cc1, CCOc1ccc(NS(=O)(=O)c2ccc(C)c(C(=O)O)c2)cc1 is higher in melting point: 150 to 152 °C for the first, 231 to 233 °C for the second.

First: CCOC(=O)c1cc(F)c(F)cc1N
Second: CCNc1nc(C)c(C(=O)OCC)s1
The melting point of the first is lower: 82 to 84 °C for the first, 102 to 104 °C for the second.

First: CC(C)c1noc(-c2ccc(Br)cc2)n1
Second: Cc1nnc(-c2ccc(N)cc2)o1
The melting point of the first is lower: 29 to 31 °C for the first, 195 to 197 °C for the second.

First: CC(=O)C(Cc1ccccc1)NC(=O)CCl (centres undefined)
Second: O=C(CCl)NC1CCN(C(=O)CCc2ccccc2)CC1
The melting point of the first is lower: 73 to 75 °C for the first, 117 to 119 °C for the second.

First: Nc1ccnn1C1CCCCC1
Second: O=S(=O)(Cl)c1ccc(S(=O)(=O)N2CCCCC2)cc1
The melting point of the first is lower: 80 to 82 °C for the first, 151 to 153 °C for the second.

First: O=C(O)c1cc(OCC(F)(F)F)c2ccccc2n1
Second: O=C(O)Cn1ncc2ccccc21
The melting point of the first is higher: 206 to 208 °C for the first, 188 to 190 °C for the second.

First: Cc1cc(F)ccc1-n1cc(C(=O)O)nn1
Second: Cc1cc(C(=O)O)c(C)n1Cc1ccco1
The melting point of the first is lower: 129 to 131 °C for the first, 170 to 172 °C for the second.

First: O=C(O)CNC(=O)c1ccccc1Cl
Second: O=C(Nc1ccccc1C(=O)O)OCc1ccccc1
The melting point of the first is higher: 182 to 184 °C for the first, 129 to 131 °C for the second.

First: O=C(NCCN1CCOCC1)C1CCNCC1
Second: O=C(CN1CCNCC1)N1CCCCC1
The melting point of the first is higher: 127 to 129 °C for the first, 83 to 85 °C for the second.

Compared with NS(=O)(=O)c1ccc(CCn2c(S)nc3ccccc3c2=O)cc1, CCc1cc(Cl)n2c(nc3ccccc32)c1C#N is lower in melting point: 294 to 296 °C for the first, 175 to 177 °C for the second.

First: CC(=O)NCCCCCC(N)=O
Second: CCOC(=O)C(NC(C)=O)C(C)=O (centres undefined)
The melting point of the first is higher: 112 to 114 °C for the first, 44 to 46 °C for the second.

First: O=C(O)C(=O)c1ccc(Cl)cc1
Second: COC(=O)COc1ccc(C(=O)O)cc1
The melting point of the first is lower: 87 to 89 °C for the first, 172 to 174 °C for the second.

First: Fc1ccc2c(C3=CCNCC3)c[nH]c2c1
Second: O=C(O)C1CSCN1C(=O)c1c[nH]c2ccccc12 (centres undefined)
The melting point of the first is higher: 173 to 175 °C for the first, 159 to 161 °C for the second.

First: Cc1c(C(=O)O)cnn1CCC#N
Second: Cc1nn(CCC(=O)O)c(C)c1[N+](=O)[O-]
The melting point of the first is higher: 159 to 161 °C for the first, 116 to 118 °C for the second.

First: O=S(=O)(Cl)c1cnc(Cl)cc1Cl
Second: N#Cc1cc(Br)cc(S(=O)(=O)Cl)c1
The melting point of the first is higher: 79 to 81 °C for the first, 74 to 76 °C for the second.

Compared with Nc1cccc(C(=O)Nc2cccc(F)c2)c1, Nc1cccc(S(=O)(=O)NCc2ccco2)c1 is lower in melting point: 123 to 125 °C for the first, 83 to 85 °C for the second.

Compared with CCC(NC(=O)OC(C)(C)C)(C(N)=O)C(C)C (centres undefined), CC(C)(C)c1ccc(CC(C#N)C(N)=O)cc1 (centres undefined) is lower in melting point: 157 to 159 °C for the first, 143 to 145 °C for the second.

First: NC(=O)Cn1ccc(N)n1
Second: Nc1ccc(CCC(=O)O)cn1
The melting point of the first is lower: 112 to 114 °C for the first, 199 to 201 °C for the second.

First: Sc1ncnc2ccsc12
Second: CS(=O)(=O)c1ccsc1N
The melting point of the first is higher: 271 to 273 °C for the first, 90 to 92 °C for the second.

Compared with NC1c2ccccc2-c2ccccc21, Cc1ccc(C#N)c(Sc2ccccc2)c1 is higher in melting point: 43 to 45 °C for the first, 59 to 61 °C for the second.

O=C1CCCC(=O)N1Cc1cccc(Br)c1 and Cc1cccc(CC(N)=S)c1 cannot be ordered by melting point: 76 to 78 °C for the first, 75 to 77 °C for the second.

First: Cn1[nH]c(-c2ccco2)c(-c2ccc3c(c2)OCO3)c1=N
Second: Nc1nnc(-c2ccc3c(c2)OCO3)o1
The melting point of the first is lower: 140 to 142 °C for the first, 271 to 273 °C for the second.

Compared with CN(C)S(=O)(=O)c1ccc(C(=O)O)o1, O=C(O)c1cccc(S(=O)(=O)NC2CC2)c1 is higher in melting point: 177 to 179 °C for the first, 188 to 192 °C for the second.

First: CC(C)(C)OC(=O)N1CC(=O)NC2CNCCC21 (centres undefined)
Second: CC(C)C(Br)C(=O)N1CCOCC1 (centres undefined)
The melting point of the first is higher: 144 to 146 °C for the first, 71 to 73 °C for the second.

Compared with O=C(O)C1COc2ccc(Cl)cc2C1 (centres undefined), CC1CNc2cc(Cl)ccc2O1 (centres undefined) is lower in melting point: 85 to 87 °C for the first, 75 to 77 °C for the second.

First: Nc1nc(-c2cccc([N+](=O)[O-])c2)cs1
Second: N#Cc1cc2ccccc2nc1Cl
The melting point of the first is higher: 186 to 188 °C for the first, 163 to 165 °C for the second.

First: NCc1cccc(OCC(N)=O)c1
Second: O=C(O)CSCc1cccnc1
The melting point of the first is lower: 89 to 91 °C for the first, 109 to 111 °C for the second.

First: CSc1nsc(N)n1
Second: Cn1cnnc1-c1ccnc(N)c1
The melting point of the first is lower: 146 to 148 °C for the first, 204 to 206 °C for the second.

Compared with Nc1ccc(-n2cccn2)nc1, Cn1c(-c2ccccn2)cccc1=O is lower in melting point: 97 to 99 °C for the first, 66 to 68 °C for the second.

First: Nc1c(C(=O)O)cc(Br)c2c1C(=O)c1ccccc1C2=O
Second: Cc1ccc(S(=O)(=O)N2CCCC2)cc1C(=O)O
The melting point of the first is higher: 313 to 315 °C for the first, 178 to 180 °C for the second.

First: Cc1nc2[nH]cnc2cc1Br
Second: O=C(O)Cc1cccc2cccnc12
The melting point of the first is higher: 197 to 199 °C for the first, 130 to 132 °C for the second.

Compared with N#CCC(=O)c1ccccc1F, O=C(O)Cc1cc2c(cc1[N+](=O)[O-])OCCO2 is higher in melting point: 51 to 53 °C for the first, 219 to 221 °C for the second.

First: CCOC(Cn1cc(C(=O)O)nn1)OCC
Second: Clc1nc(CN2CCCCC2)nc2scc(-c3cccs3)c12
The melting point of the first is higher: 138 to 140 °C for the first, 89 to 91 °C for the second.
